From patent publication US20220386606A1, “SPECIFICALLY SUBSTITUTED 3-PHENYL-5-SPIROCYCLOPENTYL-3-PYRROLIN-2-ONES AND THEIR USE AS HERBICIDES” (Bayer Aktiengesellschaft, priority 2019, published 2022)

Assays:
LOLRI [1] = experiment: Pre-emergence herbicidal action against LOLRI (Table 8, titled post-emergence at 320 g/ha); assay type: in vivo, Lolium rigidum; conditions: table stands in the pre-emergence section
Outline: (§1)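 Sandy loam, wood-fiber pots, seeds covered with soil. Spray onto soil surface: aqueous WP/EC, 600 to 800 L/ha, 0.2% wetting agent. Greenhouse 3 weeks; visual % score vs untreated controls.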

ECHCG [2] = experiment: Post-emergence herbicidal action against ECHCG; assay type: in vivo, Echinochloa crus-galli; conditions: 80 g/ha, visual assessment about 3 weeks after treatment vs untreated controls
Outline: (§2)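 Weeds and crops grown in sandy loam in the greenhouse, treated post-emergence at the one-leaf stage (2–3 weeks after sowing). WP or EC formulations sprayed as aqueous suspension/emulsion at 600–800 l/ha water with 0.2% wetting agent. Visual % activity scored after about 3 weeks versus untreated controls (100% = dead, 0% = like control).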

ABUTH [3] = experiment: Pre-emergence herbicidal action against ABUTH; assay type: in vivo, Abutylon threophrasti; conditions: 320 g/ha
Description: (§3) Seeds of monocotyledonous and dicotyledonous weed plants and crop plants are laid out in sandy loam soil in wood-fiber pots and covered with soil. The compounds of the invention, formulated in the form of wettable powders (WP) or as emulsion concentrates (EC), are then applied to the surface of the covering soil as aqueous suspension or emulsion at a water application rate equating to 600 to 800 L/ha with addition of 0.2% wetting agent.
(§4) After the treatment, the pots are placed in a greenhouse and kept under good growth conditions for the trial plants. The damage to the test plants is scored visually after a test period of 3 weeks by comparison with untreated controls (herbicidal activity in percent (%): 100% activity=the plants have died, 0% activity=like control plants).

DIGSA [4] = experiment: Pre-emergence herbicidal action against DIGSA; assay type: in vivo, Digitaria sanguinalis; conditions: 320 g/ha, scored visually after 3 weeks vs untreated controls
Outline: as §1

MATIN = experiment: Pre-emergence herbicidal action against MATIN; assay type: in vivo; conditions: 320 g/ha
Outline: as §1

VERPE = experiment: Pre-emergence herbicidal action against VERPE; assay type: in vivo, Veronica persica; conditions: 320 g/ha
Outline: as §1

SETVI [5] = experiment: Post-emergence herbicidal action against SETVI; assay type: in vivo, Setaria viridis; conditions: 80 g/ha, visual assessment about 3 weeks after treatment vs untreated controls
Outline: as §2

AVEFA [6] = experiment: Pre-emergence herbicidal action against AVEFA; assay type: in vivo, Avena fatua; conditions: 320 g/ha, scored visually after 3 weeks vs untreated controls
Outline: as §1

AMARE = experiment: Pre-emergence herbicidal action against AMARE; assay type: in vivo, Amaranthus retroflexus; conditions: 320 g/ha
Outline: as §1

LOLRI [7] = experiment: Post-emergence herbicidal action against LOLRI; assay type: in vivo, Lolium rigidum; conditions: 80 g/ha, visual assessment about 3 weeks after treatment vs untreated controls
Outline: as §2

ALOMY [8] = experiment: Post-emergence herbicidal action against ALOMY; assay type: in vivo, Alopecurus myosuroides; conditions: 80 g/ha, visual assessment after about 3 weeks
Outline: as §2

AVEFA [9] = experiment: Post-emergence herbicidal action against AVEFA; assay type: in vivo, Avena fatua; conditions: 80 g/ha, visual assessment after about 3 weeks
Outline: as §2

DIGSA [10] = experiment: Post-emergence herbicidal action against DIGSA; assay type: in vivo, Digitaria sanguinalis; conditions: 80 g/ha, visual assessment about 3 weeks after treatment vs untreated controls
Outline: as §2

ECHCG [11] = experiment: Pre-emergence herbicidal action against ECHCG; assay type: in vivo, Echinochloa crus-galli; conditions: 320 g/ha, scored visually after 3 weeks vs untreated controls
Outline: as §1

SETVI [12] = experiment: Pre-emergence herbicidal action against SETVI; assay type: in vivo, Setaria viridis; conditions: 320 g/ha, scored visually after 3 weeks vs untreated controls
Outline: as §1

ALOMY [13] = experiment: Pre-emergence herbicidal action against ALOMY; assay type: in vivo, Alopecurus myosuroides; conditions: 320 g/ha, scored visually after 3 weeks vs untreated controls
Outline: as §1

VIOTR = experiment: Pre-emergence herbicidal action against VIOTR; assay type: in vivo, Viola tricolor; conditions: 320 g/ha
Outline: as §1

POLCO = experiment: Pre-emergence herbicidal action against POLCO; assay type: in vivo, Polygonum convolvulus; conditions: 320 g/ha
Description: as §3, §4

HORMU = experiment: Post-emergence herbicidal action against HORMU; assay type: in vivo, Hordeum murinum; conditions: 80 g/ha, visual assessment about 3 weeks after treatment vs untreated controls
Experimental: Seeds of monocotyledonous and dicotyledonous weed and crop plants are laid out in sandy loam soil in wood-fiber pots, covered with soil and cultivated in a greenhouse under good growth conditions. 2 to 3 weeks after sowing, the test plants are treated at the one-leaf stage. The compounds of the invention, formulated in the form of wettable powders (WP) or as emulsion concentrates (EC), are then sprayed onto the green parts of the plants as aqueous suspension or emulsion at a water application rate equating to 600 to 800 l/ha with addition of 0.2% wetting agent. After the test plants have been left to stand in the greenhouse under optimal growth conditions for about 3 weeks, the action of the preparations is assessed visually in comparison to untreated controls (herbicidal action in percent (%): 100% activity=the plants have died, 0% activity=like control plants).

ABUTH [14] = experiment: Post-emergence herbicidal action against ABUTH; assay type: in vivo, Abutylon threophrasti; conditions: 80 g/ha, visual assessment about 3 weeks after treatment vs untreated controls
Outline: as §2

SMILES | Pre-emergence herbicidal action against LOLRI in % (LOLRI [1]) | Post-emergence action against ECHCG in % (ECHCG [2]) | Pre-emergence action against ABUTH in % (ABUTH [3]) | Pre-emergence action against DIGSA in % (DIGSA [4]) | Pre-emergence action against MATIN in % (MATIN) | Pre-emergence action against VERPE in % (VERPE) | Post-emergence action against SETVI in % (SETVI [5]) | Pre-emergence action against AVEFA in % (AVEFA [6]) | Pre-emergence action against AMARE in % (AMARE) | Post-emergence action against LOLRI in % (LOLRI [7]) | Post-emergence action against ALOMY in % (ALOMY [8]) | Post-emergence action against AVEFA in % (AVEFA [9]) | Post-emergence action against DIGSA in % (DIGSA [10]) | Pre-emergence action against ECHCG in % (ECHCG [11]) | Pre-emergence action against SETVI in % (SETVI [12]) | Pre-emergence action against ALOMY in % (ALOMY [13]) | Pre-emergence action against VIOTR in % (VIOTR) | Pre-emergence action against POLCO in % (POLCO) | Post-emergence action against HORMU in % (HORMU) | Post-emergence action against ABUTH in % (ABUTH [14])
CC#Cc1cc(C)c(C2=C(O)C3(CCC(COCC)C3)NC2=O)c(Cl)c1 (centres unmarked) [Example I-17] | 100% | 100% | 90% | 100% | 90% | 90% | 100% | 100% | 100% | 100% | 100% | 90% | 100% | 100% | 100% | 100% | 100% | – | – | –
CC#Cc1cc(C)c(C2=C(O)C3(CCC(COCCOC)C3)NC2=O)c(Cl)c1 (centres unmarked) [Example I-50] | 100% | 100% | 100% | 100% | 80% | – | 100% | 100% | 80% | 90% | 100% | 80% | – | 100% | 100% | 100% | 100% | 90% | – | –
CC#Cc1cc(Cl)c(C2=C(O)C3(CCC(COC)C3)NC2=O)c(OC)c1 (centres unmarked) [Example I-72] | 100% | 100% | 100% | 100% | 100% | – | 100% | 100% | – | 100% | 90% | 100% | 100% | 100% | 100% | 100% | 100% | – | – | –
CC#Cc1cc(Cl)c(C2=C(O)C3(CCC(COC)C3)NC2=O)c(OC)c1 (centres unmarked) [Example I-73] | 100% | 100% | 100% | 100% | 90% | 90% | 100% | 100% | 100% | 100% | 100% | 100% | 100% | 100% | 100% | 100% | 100% | – | – | –
CC#Cc1cc(Cl)c(C2=C(OC(=O)C(C)C)C3(CCC(COC)C3)NC2=O)c(CC)c1 (centres unmarked) [Example P-14] | – | 100% | – | – | – | – | 100% | – | – | 100% | 100% | 100% | 100% | – | – | – | – | – | 100% | 90%
CC#Cc1cc(Cl)c(C2=C(OC(=O)C(C)C)C3(CCC(COCC)C3)NC2=O)c(OC)c1 (centres unmarked) [Example P-25] | – | 100% | – | – | – | – | 100% | – | – | 100% | 100% | 100% | 100% | – | – | – | – | – | 100% | 90%
CC#Cc1cc(Cl)c(C2=C(OC(=O)OCC)C3(CCC(COCC)C3)NC2=O)c(OC)c1 (centres unmarked) [Example P-26] | – | 100% | – | – | – | – | 100% | – | – | 100% | 100% | 100% | 100% | – | – | – | – | – | 100% | 80%
CC#Cc1cc(Cl)c(C2=C(OC(=O)OCC)C3(CCC(COC)C3)NC2=O)c(OC)c1 (centres unmarked) [Example P-97] | 100% | 100% | 100% | 100% | 100% | 100% | 100% | 100% | 100% | 100% | 100% | 100% | 100% | 100% | 100% | 100% | 90% | – | – | –
CC#Cc1cc(Cl)c(C2=C(OC(=O)OCC)C3(CCC(COC)C3)NC2=O)c(OC)c1 (centres unmarked) [Example P-98] | 100% | 100% | 90% | 100% | 90% | 100% | 100% | 100% | 100% | 100% | 100% | 90% | 100% | 100% | 100% | 100% | 100% | – | – | –
C#CCOCC1CCC2(C1)NC(=O)C(c1c(C)cc(C#CC)cc1Cl)=C2OC(=O)OCC (centres unmarked) [Example P-100] | 100% | 100% | 80% | 100% | 90% | 90% | 100% | 90% | 100% | 100% | 100% | 80% | 90% | 100% | 100% | 100% | 100% | – | – | –
